Source: ChEMBL document CHEMBL1153667, “6N-Cinnamoyl--naltrexamine and its p-nitro derivative. High efficacy -opioid agonists with weak antagonist actions” (Bioorg Med Chem Lett, 1996)
The source made the active and inactive calls. The rule behind the calls is not given here.

What was measured:
Mu-type opioid receptor = Mu-type opioid receptor (Cavia porcellus, UniProt P97266); assay: Compound was evaluated for binding affinity against [3H]- DAMGO labeled mu opioid receptor in guinea-pig brain homogenate.; type: tissue-based
Chain of Mu-type opioid receptor (P97266 whole entry): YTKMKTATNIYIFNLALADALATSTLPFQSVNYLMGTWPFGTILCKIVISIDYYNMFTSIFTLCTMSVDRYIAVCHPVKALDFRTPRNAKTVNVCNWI

Cavia porcellus [1] = species on record: Cavia porcellus; assay: Antagonism by the selective kappa-antagonist nor-binaltorphimine (nor-BNl) in electrically stimulated guinea-pig ileum; type: functional
[2] = molecular target: T1, Kappa-type opioid receptor (Cavia porcellus, UniProt P41144); assay: Compound was evaluated for kappa opioid receptor mediated agonistic effect in electrically stimulated guinea-pig ileum; type: functional, tissue-based
T1 sequence (P41144 whole entry): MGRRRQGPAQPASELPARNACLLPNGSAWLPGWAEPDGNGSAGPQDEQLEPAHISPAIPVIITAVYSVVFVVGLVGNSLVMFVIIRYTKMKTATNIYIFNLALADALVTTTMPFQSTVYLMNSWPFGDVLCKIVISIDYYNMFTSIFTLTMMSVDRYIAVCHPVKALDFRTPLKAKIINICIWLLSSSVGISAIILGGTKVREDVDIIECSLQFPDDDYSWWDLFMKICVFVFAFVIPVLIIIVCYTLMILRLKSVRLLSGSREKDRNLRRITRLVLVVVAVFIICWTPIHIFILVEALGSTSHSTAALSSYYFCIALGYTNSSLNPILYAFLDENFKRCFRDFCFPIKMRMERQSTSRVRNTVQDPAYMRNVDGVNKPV

[3] = molecular target: T2, Kappa-type opioid receptor (Mus musculus, UniProt P33534); assay: Compound was evaluated for kappa opioid receptor mediated agonistic effect in mouse vas deferens(MVD) preparations; Not an agonist; type: functional
T2 sequence (P33534 whole entry): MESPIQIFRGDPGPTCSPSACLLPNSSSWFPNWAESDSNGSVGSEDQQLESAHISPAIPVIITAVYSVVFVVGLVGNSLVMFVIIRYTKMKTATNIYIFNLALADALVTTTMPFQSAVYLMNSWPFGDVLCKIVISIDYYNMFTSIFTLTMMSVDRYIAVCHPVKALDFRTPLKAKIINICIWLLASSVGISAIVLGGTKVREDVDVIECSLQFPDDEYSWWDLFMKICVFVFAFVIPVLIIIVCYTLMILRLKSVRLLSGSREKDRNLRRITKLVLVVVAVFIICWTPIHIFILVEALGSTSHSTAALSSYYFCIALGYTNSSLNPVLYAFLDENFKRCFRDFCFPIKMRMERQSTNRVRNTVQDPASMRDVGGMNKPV

[4] = molecular target: T1, Kappa-type opioid receptor; assay: Compound was evaluated for binding affinity against [3H]- U-69593 labeled kappa1 opioid receptor in guinea-pig brain homogenate.; type: tissue-based
[5] = molecular target: T1, Kappa-type opioid receptor; assay: Compound was evaluated for binding affinity against [3H]- bremazocine labeled kappa2 opioid receptor in guinea-pig brain homogenate.; type: tissue-based
Mus musculus = species on record: Mus musculus; assay: Antagonism by the selective kappa-antagonist nor-binaltorphimine (nor-BNl) in mouse vas deferens(MVD) preparations; type: functional
[6] = molecular target: T2, Kappa-type opioid receptor; assay: Compound was evaluated for kappa opioid receptor mediated agonistic effect in mouse vas deferens(MVD) preparations; type: functional
Cavia porcellus [7] = species on record: Cavia porcellus; assay: Antagonism by the selective kappa-antagonist nor-binaltorphimine (nor-BNl) in electrically stimulated guinea-pig ileum; No inhibition; type: functional

Row | SMILES | Ki (Mu-type opioid receptor) [nM] | Ke (Cavia porcellus [1]) [nM] | IC50 [2] [nM] | IC50 [3] | Ki [4] [nM] | Ki [5] [nM] | Ke (Mus musculus) [nM] | IC50 [6] [nM] | Ke (Cavia porcellus [7])
1 | O=C(/C=C/c1ccc(Cl)cc1)N[C@@H]1CC[C@@]2(O)[C@H]3Cc4ccc(O)c5c4C2(CCN3CC2CC2)[C@H]1O5 | 0.1 | 0.3 | 2.2 | Not Active | 0.2 | 48.3 | – | – | –
2 | O=C(/C=C/c1ccccc1)N[C@@H]1CC[C@@]2(O)[C@H]3Cc4ccc(O)c5c4[C@@]2(CCN3CC2CC2)[C@H]1O5 | 0.07 | 0.5 | 0.4 | – | 0.2 | 12.8 | 5.1 | 5.6 | –
3 | O=C(/C=C/c1ccc([N+](=O)[O-])cc1)N[C@@H]1CC[C@@]2(O)[C@H]3Cc4ccc(O)c5c4C2(CCN3CC2CC2)[C@H]1O5 | 0.2 | – | 13.4 | Not Active | 0.8 | 30.5 | – | – | inactive
4 | Cc1ccc(/C=C/C(=O)N[C@@H]2CC[C@@]3(O)[C@H]4Cc5ccc(O)c6c5C3(CCN4CC3CC3)[C@H]2O6)cc1 | 0.23 | 0.2 | 12.6 | – | 0.6 | 171 | – | 17100 | –
